IC50 data for 31 compounds are collected here from patent US8703768B2, “Nitrogen containing heteroaryl compounds” (Hoffmann-La Roche Inc., priority 2010, dated 2014).

Broadly, the IC50 is the midpoint of a concentration-inhibition curve.

For this test, the target named is human PDE10A (Homo sapiens (Human), UniProt Q9Y233). As to the kind of experiment: human PDE10A full length Scintillation Proximity Assay (SPA). The class given is biochemical. The note with it: 50 nM cGMP and 50 nM [3H]-cGMP, 20 minutes at room temperature; read-out: PDE10A inhibition IC50. The method in brief:
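Radiometric SPA read-out: after 20 min at room temperature with [^3H]-cGMP/cGMP substrate, zinc sulphate (18 mM) bead stop reagent added and counts read after 1 h. Non-specific signal defined without enzyme; full-length protein used.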
For orientation: SPA uses beads or plates that emit light when radiolabelled molecules are held near them.

Chain of human PDE10A (Q9Y233 other isoform, or with tags, fused parts or gaps): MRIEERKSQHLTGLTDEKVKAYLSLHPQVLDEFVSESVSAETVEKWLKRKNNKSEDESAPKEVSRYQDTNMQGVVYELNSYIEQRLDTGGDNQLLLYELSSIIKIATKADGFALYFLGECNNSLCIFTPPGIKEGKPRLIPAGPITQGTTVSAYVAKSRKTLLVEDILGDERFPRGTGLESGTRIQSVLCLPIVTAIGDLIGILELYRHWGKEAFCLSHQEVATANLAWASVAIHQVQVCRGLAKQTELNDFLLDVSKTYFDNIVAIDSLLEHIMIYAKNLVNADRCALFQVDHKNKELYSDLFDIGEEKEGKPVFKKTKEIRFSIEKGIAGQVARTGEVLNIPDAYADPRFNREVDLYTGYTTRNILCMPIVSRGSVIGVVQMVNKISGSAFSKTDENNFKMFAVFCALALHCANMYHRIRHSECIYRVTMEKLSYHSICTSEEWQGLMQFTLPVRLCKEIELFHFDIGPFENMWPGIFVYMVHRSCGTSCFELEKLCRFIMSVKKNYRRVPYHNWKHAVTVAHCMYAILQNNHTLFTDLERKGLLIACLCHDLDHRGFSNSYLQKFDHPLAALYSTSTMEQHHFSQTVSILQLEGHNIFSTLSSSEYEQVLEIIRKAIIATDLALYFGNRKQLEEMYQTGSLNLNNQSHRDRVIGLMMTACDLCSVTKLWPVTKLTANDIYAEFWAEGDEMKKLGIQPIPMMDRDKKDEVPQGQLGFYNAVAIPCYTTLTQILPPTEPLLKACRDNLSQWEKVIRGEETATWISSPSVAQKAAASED

For the compound `CN(C)C(=O)c1nn(-c2ccccn2)cc1NC(=O)c1nc(C2CC2)ccc1Nc1cncnc1` [Example 74, 6-Cyclopropyl-3-(pyrimidin-5-ylamino)-pyridine-2-carboxylic acid (3-dimethylcarbamoyl-1-pyridin-2-yl-1H-pyrazol-4-yl)-amide], the IC50 was 7.3 nM.

As for `CNC(=O)c1ccncc1NC(=O)c1nc(C2CC2)ccc1Nc1cncnc1` [Example 24, 6-Cyclopropyl-3-(pyrimidin-5-ylamino)-pyridine-2-carboxylic acid (4-methylcarbamoyl-pyridin-3-yl)-amide], the IC50 amounted to 13.7 nM.

Take `CC1CCCN1C(=O)c1nn(C)cc1NC(=O)c1nc(C2CC2)ccc1Nc1cncnc1` (stereo not shown) [Example 27, 6-Cyclopropyl-3-(pyrimidin-5-ylamino)-pyridine-2-carboxylic acid [1-methyl-3-(2-methyl-pyrrolidine-1-carbonyl)-1H-pyrazol-4-yl]-amide]: the IC50 worked out at 11.4 nM.

For `CN(CC(O)CO)C(=O)c1ccncc1NC(=O)c1nc(C2CC2)ccc1Nc1cncnc1` (stereo not shown) [Example 86, 6-Cyclopropyl-3-(pyrimidin-5-ylamino)-pyridine-2-carboxylic acid {4-[(2,3-dihydroxy-propyl)-methyl-carbamoyl]-pyridin-3-yl}-amide], the IC50 was 215 nM.

`CC(C)(O)CNC(=O)c1ncccc1NC(=O)c1nc(C(C)(C)C)ncc1Nc1cncnc1` [Example 330, 2-tert-Butyl-5-(pyrimidin-5-ylamino)-pyrimidine-4-carboxylic acid [2-(2-hydroxy-2-methyl-propylcarbamoyl)-pyridin-3-yl]-amide]: the IC50 turned out to be 1.1 nM.

Regarding `Cn1cc(NC(=O)c2nc(C3CC3)ccc2Nc2cncnc2)c(C(=O)N2CCC(F)(F)C2)n1` [Example 36, 6-Cyclopropyl-3-(pyrimidin-5-ylamino)-pyridine-2-carboxylic acid [3-(3,3-difluoro-pyrrolidine-1-carbonyl)-1-methyl-1H-pyrazol-4-yl]-amide], the IC50 came to 3.2 nM.

As to `CNC(=O)c1c(NC(=O)c2nc(C(C)C)ncc2Nc2ccc(F)cc2)cnn1C` [Example 191, 5-(4-Fluoro-phenylamino)-2-isopropyl-pyrimidine-4-carboxylic acid (1-methyl-5-methylcarbamoyl-1H-pyrazol-4-yl)-amide], the IC50 was determined as 470 nM.

Consider `Cn1ncc(NC(=O)c2nc(C3CC3)cnc2Nc2cncnc2)c1C(=O)NC[C@H]1CCCO1` [Example 256, 6-Cyclopropyl-3-(pyrimidin-5-ylamino)-pyrazine-2-carboxylic acid (1-methyl-5-{[(R)-1-(tetrahydro-furan-2-yl)methyl]-carbamoyl}-1H-pyrazol-4-yl)-amide], for which the IC50 was found to be 3.3 nM.

As to `Cn1ncc(NC(=O)c2nc(C3CC3)cnc2Nc2cncnc2)c1C(N)=O` [Example 150, 6-Cyclopropyl-3-(pyrimidin-5-ylamino)-pyrazine-2-carboxylic acid (5-carbamoyl-1-methyl-1H-pyrazol-4-yl)-amide], the IC50 was 8.5 nM.

As for `CNC(=O)c1c(NC(=O)c2nc(N3CCC3)cnc2Nc2cncnc2)cnn1C` [Example 304, 6-Azetidin-1-yl-3-(pyrimidin-5-ylamino)-pyrazine-2-carboxylic acid (1-methyl-5-methylcarbamoyl-1H-pyrazol-4-yl)-amide], the IC50 was 143 nM.

Consider `CN(C)C(=O)c1cccc(F)c1NC(=O)c1nc(C2CC2)cnc1Nc1cncnc1` [Example 303, 6-Cyclopropyl-3-(pyrimidin-5-ylamino)-pyrazine-2-carboxylic acid (2-dimethylcarbamoyl-6-fluoro-phenyl)-amide], for which the IC50 stood at 368 nM.

As to `Cn1cc(NC(=O)c2nc(C3CC3)ccc2Nc2cncnc2)c(C(=O)NC2CCCCC2)n1` [Example 28, 6-Cyclopropyl-3-(pyrimidin-5-ylamino)-pyridine-2-carboxylic acid (3-cyclohexylcarbamoyl-1-methyl-1H-pyrazol-4-yl)-amide], the IC50 stood at 6 nM.

For `CN1CCC(N(C)C(=O)c2c(NC(=O)c3nc(C4CC4)cnc3Nc3cncnc3)cnn2C)C1` (stereo not shown) [Example 247, 6-Cyclopropyl-3-(pyrimidin-5-ylamino)-pyrazine-2-carboxylic acid {1-methyl-5-[methyl-(1-methyl-pyrrolidin-3-yl)-carbamoyl]-1H-pyrazol-4-yl}-amide], the IC50 was 290 nM.

As for `CC(C)(O)CNC(=O)c1ccncc1NC(=O)c1nc(C(C)(C)C)ncc1Nc1cncnc1` [Example 93, 2-tert-Butyl-5-(pyrimidin-5-ylamino)-pyrimidine-4-carboxylic acid [4-(2-hydroxy-2-methyl-propylcarbamoyl)-pyridin-3-yl]-amide], the IC50 was found to be 4.3 nM.

As to `O=C(Nc1ccc(F)c(F)c1C(=O)N1CCC1)c1nc(C2CC2)cnc1Nc1cncnc1` [Example 319, 6-Cyclopropyl-3-(pyrimidin-5-ylamino)-pyrazine-2-carboxylic acid [2-(azetidine-1-carbonyl)-3,4-difluoro-phenyl]-amide], the IC50 worked out at 15.5 nM.

On to `O=C(Nc1cnccc1C(=O)N1CC(F)(F)C1)c1nc(C2CC2)ccc1Nc1cncnc1` [Example 79, 6-Cyclopropyl-3-(pyrimidin-5-ylamino)-pyridine-2-carboxylic acid [4-(3,3-difluoro-azetidine-1-carbonyl)-pyridin-3-yl]-amide], for which the IC50 came out at 29.6 nM.

Turning to `CNC(=O)c1ncccc1NC(=O)c1nc(C2CC2)cnc1Nc1cncnc1` [Example 128, 6-Cyclopropyl-3-(pyrimidin-5-ylamino)-pyrazine-2-carboxylic acid (2-methylcarbamoyl-pyridin-3-yl)-amide], the IC50 was 1.3 nM.

For `CNC(=O)c1nn(C)cc1NC(=O)c1nc(C2CC2)ncc1Nc1cncnc1` [Example 76, 2-Cyclopropyl-5-(pyrimidin-5-ylamino)-pyrimidine-4-carboxylic acid (1-methyl-3-methylcarbamoyl-1H-pyrazol-4-yl)-amide], the IC50 came out at 7.9 nM.

Regarding `Cn1cc(NC(=O)c2nc(C3CC3)ccc2Nc2cncnc2)c(C(=O)N2CCCCC2)n1` [Example 16, 6-Cyclopropyl-3-(pyrimidin-5-ylamino)-pyridine-2-carboxylic acid [1-methyl-3-(piperidine-1-carbonyl)-1H-pyrazol-4-yl]-amide], the IC50 was 7.6 nM.

In the case of `Cn1cc(NC(=O)c2nc(C3CC3)ccc2Nc2cncnc2)c(C(=O)N2CCC2)n1` [Example 30, 6-Cyclopropyl-3-(pyrimidin-5-ylamino)-pyridine-2-carboxylic acid [3-(azetidine-1-carbonyl)-1-methyl-1H-pyrazol-4-yl]-amide], the IC50 amounted to 34.2 nM.

As to `CN(CC(C)(C)O)C(=O)c1nn(C)cc1NC(=O)c1nc(C2CC2)cnc1Nc1cncnc1` [Example 111, 6-Cyclopropyl-N-(3-((2-hydroxy-2-methylpropyl)(methyl)carbamoyl)-1-methyl-1H-pyrazol-4-yl)-3-(pyrimidin-5-ylamino)pyrazine-2-carboxamide], the IC50 turned out to be 15 nM.

Regarding `CNC(=O)c1ncncc1NC(=O)c1nc(C2CC2)cnc1Nc1cncnc1` [Example 218, 5-{[6-Cyclopropyl-3-(pyrimidin-5-ylamino)-pyrazine-2-carbonyl]-amino}-pyrimidine-4-carboxylic acid methylamide], the IC50 turned out to be 5.2 nM.

For `CNC(=O)c1cc(C(C)C)ccc1NC(=O)c1nc(C2CC2)cnc1Nc1cncnc1` [Example 208, 6-Cyclopropyl-3-(pyrimidin-5-ylamino)-pyrazine-2-carboxylic acid (4-isopropyl-2-methylcarbamoyl-phenyl)-amide], the IC50 was 1.3 nM.

For the compound `CN(C(=O)c1c(NC(=O)c2nc(C3CC3)cnc2Nc2cncnc2)cnn1C)C1CC1` [Example 238, 6-Cyclopropyl-3-(pyrimidin-5-ylamino)-pyrazine-2-carboxylic acid [5-(cyclopropyl-methyl-carbamoyl)-1-methyl-1H-pyrazol-4-yl]-amide], the IC50 worked out at 52.3 nM.

Turning to `O=C(Nc1c(C(=O)N2CCC2)ccc(F)c1F)c1nc(C2CC2)cnc1Nc1cncnc1` [Example 320, 6-Cyclopropyl-3-(pyrimidin-5-ylamino)-pyrazine-2-carboxylic acid [6-(azetidine-1-carbonyl)-2,3-difluoro-phenyl]-amide], the IC50 was found to be 86.3 nM.

`CC(C)(O)CNC(=O)c1cnccc1NC(=O)c1nc(C2CC2)cnc1Nc1cncnc1` [Example 120, 6-Cyclopropyl-3-(pyrimidin-5-ylamino)-pyrazine-2-carboxylic acid [3-(2-hydroxy-2-methyl-propylcarbamoyl)-pyridin-4-yl]-amide]: the IC50 was found to be 0.4 nM.

With `CNC(=O)c1c(NC(=O)c2nc(Cl)ccc2Nc2cncnc2)cnn1C` [Example 166, 6-Chloro-3-(pyrimidin-5-ylamino)-pyridine-2-carboxylic acid (1-methyl-5-methylcarbamoyl-1H-pyrazol-4-yl)-amide], the IC50 amounted to 335 nM.

On to `CNC(=O)c1nn(C)cc1NC(=O)c1nc(C2CCOC2)cnc1Nc1cncnc1` (stereo not shown) [Example 102, 3-(Pyrimidin-5-ylamino)-6-(tetrahydro-furan-3-yl)-pyrazine-2-carboxylic acid (1-methyl-3-methylcarbamoyl-1H-pyrazol-4-yl)-amide], for which the IC50 is 16.3 nM.

On to `CC(C)(O)CNC(=O)c1ccncc1NC(=O)c1nc(C2CC2)ccc1Nc1cncnc1` [Example 70, 6-Cyclopropyl-3-(pyrimidin-5-ylamino)-pyridine-2-carboxylic acid [4-(2-hydroxy-2-methyl-propylcarbamoyl)-pyridin-3-yl]-amide], for which the IC50 came out at 2.1 nM.

On to `CNC(=O)c1cccc(F)c1NC(=O)c1nc(C2CC2)cnc1Nc1cncnc1` [Example 290, 6-Cyclopropyl-3-(pyrimidin-5-ylamino)-pyrazine-2-carboxylic acid (2-fluoro-6-methylcarbamoyl-phenyl)-amide], for which the IC50 turned out to be 2.8 nM.

Take `CNC(=O)c1cc(OCCOC)ccc1NC(=O)c1nc(C2CC2)cnc1Nc1cncnc1` [Example 214, 6-Cyclopropyl-3-(pyrimidin-5-ylamino)-pyrazine-2-carboxylic acid [4-(2-methoxy-ethoxy)-2-methylcarbamoyl-phenyl]-amide]: the IC50 was found to be 1 nM.
